ChEMBL document CHEMBL1800045, “Eudistomidins H-K, new β-carboline alkaloids from the Okinawan marine tunicate Eudistoma glaucus” (Bioorg Med Chem Lett, 2011)
Values after ≈ are worked out from the molar mass of the structure shown.

How the values were obtained:
Type in all cases: functional, cell-based
[1] = test system: P388; test: Cytotoxicity against mouse P388 cells
[2] = test system: KB; test: Cytotoxicity against human KB cells
[3] = test system: L1210; test: Cytotoxicity against mouse L1210 cells

Row | SMILES | IC50 [1] | IC50 [2] | IC50 [3]
1 | CN1Cn2c3c(c4ccc(Br)cc42)CCN(C)[C@@H]3[C@@H]1Cc1ccccc1 [EUDISTOMIDIN H] | > 10 µg/mL | > 10 µg/mL | > 10 µg/mL
2 | CN1Cn2c3c(c4cc(Br)ccc42)CCN(C)[C@@H]3[C@@H]1Cc1ccccc1 [EUDISTOMIDIN I] | > 10 µg/mL | > 10 µg/mL | > 10 µg/mL
3 | CN[C@H](C[S+](C)[O-])c1nccc2c1[nH]c1ccc(O)c(Br)c12 (stereo partly drawn) [EUDISTOMIDIN J] | 0.043 µg/mL (≈ 0.112 µM) | 0.063 µg/mL (≈ 0.165 µM) | 0.047 µg/mL (≈ 0.123 µM)
4 | CC(=O)c1nccc2c1[nH]c1ccc(O)c(Br)c12 [EUDISTOMIDIN K] | > 10 µg/mL | > 10 µg/mL | > 10 µg/mL
5 | CN[C@H](CSC)c1nccc2c1[nH]c1ccc(O)c(Br)c12 [EUDISTOMIDIN C] | – | – | 0.36 µg/mL (≈ 0.983 µM)
